The subject of assay [1] is very virulent strain of Staph. The class given is cell-based. The note with it: calculated from inhibition zone being inversely proportional to MIC. The text has this:
(§1) An independent medical researcher in Israel obtained a very virulent strain of Staph from a patient at the Shaarei Tzedek Hospital in Jerusalem. […] This Staph strain was utilized as the Staph source, and the otherwise exact test protocol described above was repeated. […] Only one test swatch was used for the Staph evaluation.

Assay [2] concerns all Gram Negative bacteria listed in Table 1. Conditions: same reasoning applied to PA marker.
From the text: as §1

Assay [3] relates to all Gram positive bacteria listed in Table 1. The note with it: extrapolated from virulent Staph result.
From the text: as §1

A further assay has as its system Escherichia coll 10231. The note with it: Escherichia coll 10231, Gram Negative; cited from earlier work.
Another assay deals with Escherichia coll 25254. The note with it: Escherichia coll 25254, Gram Negative; cited from earlier work.
Assay [4] deals with Enterobacter cloacae 13047. The note with it: Enterobacter cloacae 13047, Gram Negative; cited from earlier work.
Assay [5] concerns Pseudomonas aeruginosa 9027. Conditions: Pseudomonas aeruginosa 9027, Gram Negative; cited from earlier work.
A further assay relates to Bacillus subtilis 6633. Conditions: Bacillus subtilis 6633, Gram Positive; cited from earlier work.
The test system of another assay is Micrococcus lutena 9341. Conditions: Micrococcus lutena 9341, Gram Positive; cited from earlier work.
For assay [6], the system named is Staphylococcus aureus 0927. The note with it: Staphylococcus aureus 0927, Gram Positive; cited from earlier work.
Assay [7] relates to Staphylococcus aureus 27543. Conditions: Staphylococcus aureus 27543, Gram Positive; cited from earlier work.
The test system of assay [8] is Staphylococcus epidermidis 12228. Conditions: Staphylococcus epidermidis 12228, Gram Positive; cited from earlier work.
The subject of assay [9] is Streptococcus agalactiae 27956. Conditions: Streptococcus agalactiae 27956, Gram Positive; cited from earlier work.
The test system of assay [10] is Streptococcus faecium 10541. Conditions: Streptococcus faecium 10541, Gram Positive; cited from earlier work.
For assay [11], the system named is Streptococcus-pyogenes 7958. The note with it: Streptococcus-pyogenes 7958, Gram Positive; cited from earlier work.
A further assay deals with Candida albicans 16404. Conditions: Candida albicans 16404, Yeast and Mold; cited from earlier work.
The test system of assay [12] is Saccharomyces cerevisiae 2601. Conditions: Saccharomyces cerevisiae 2601, Yeast and Mold; cited from earlier work.

As for `[Ag+].[Ag+].[Ag+].[Ag+].[O-2].[O-2].[O-2].[O-2]` [Ag4O4, tetrasilver tetroxide], in assay [1], the “MIC for the virulent Staph strain” value is 40.5-61.0 PPM. Further, the “inhibition of all Gram Negative bacteria listed in Table 1” value in [2] was “inhibition”. Further, the “inhibition of all listed Gram positive bacteria” value in [3] is recorded as “capable of inhibiting”. For the same compound, the “MIC (Minimal Inhibitory Concentration)” value with Escherichia coll 10231 is reported as 2.50 PPM; in the assay with Escherichia coll 25254, 2.50 PPM; in assay [4], 2.50 PPM; in assay [5], 1.25-2.50 PPM; with Bacillus subtilis 6633, 5.00 PPM; in the assay on Micrococcus lutena 9341, 1.25-2.50 PPM. The “MIC (Minimal Inhibitory Concentration)” value is listed as 2.50-5.00 PPM in [6]; 5.00 PPM in [7]; 0.625 PPM in assay [8]; 1.25-5.00 PPM in assay [9]; 5.00 PPM in assay [10]; 2.50 PPM in [11]. Besides, the “MIC (Minimal Inhibitory Concentration)” value in the assay with Candida albicans 16404 was 2.50-5.0 PPM; in [12], 1.25 PPM.

Source of the values: patent US6436420B1, “High performance silver (I,III) oxide antimicrobial textile articles” (Marantech Holding, LLC, priority 2000, dated 2002).
